Our source for the IC50 values is US20260355212A1 (priority 2022, published 2026).

pIC50: −log10 of the molar value. Read-outs that look alike come from different tables or passages of the source.

In experiment [1] the target is HCoV-HKU1 Mpro (Human coronavirus HKU1, UniProt P0C6X2). The experiment is described as follows: HCoV-HKU1 Mpro enzymatic inhibition assay (fluorescence). It is filed as biochemical. In outline:
(§1)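 Recombinant Mpro from E. coli was pre-incubated with compound (3-fold, 10-point dilutions, duplicates) for 30 min at room temperature, then fluorogenic peptide substrate was added and fluorescence read at Ex/Em 340/490 nm after 60 min at 30 °C. IC50 came from four-parameter fits of background-corrected inhibition.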

The target of experiment [2] is SARS-CoV-2 Mpro (Severe acute respiratory syndrome coronavirus 2, UniProt P0DTD1). The experiment can be described thus: SARS-CoV-2 Mpro enzymatic inhibition assay (fluorescence). The class given is biochemical. In outline: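 Recombinant Mpro expressed in E. coli was preincubated 30 min at room temperature with 10-point, 3-fold serially diluted compound in duplicate. Fluorogenic substrate was then added and incubated 60 min at 30° C, and fluorescence read at Ex/Em 340/490 nm. IC50 came from a four-parameter fit of % inhibition.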

Experiment [3] addresses SARS-CoV-1 Mpro (Severe acute respiratory syndrome coronavirus, UniProt P0C6X7). The experiment is described as follows: biochemical.
Experiment [4] has as its target HCoV-NL63 Mpro (Human coronavirus NL63, UniProt P0C6X5). The experiment can be described thus: HCoV-NL63 Mpro enzymatic inhibition assay (fluorescence). The class given is biochemical. The method, boiled down: as §1
Experiment [5] concerns the target MERS Mpro (Middle East respiratory syndrome-related coronavirus, UniProt K9N7C7). The experiment can be described thus: biochemical. More on the design: species or system MERS-CoV.
In experiment [6] the target is HCoV-OC43 Mpro (Human coronavirus OC43, UniProt P0C6X6). The experiment is described as follows: HCoV-OC43 Mpro enzymatic inhibition assay (fluorescence). The class given is biochemical. The method, boiled down:
as §1

Experiment [7] concerns the target HCoV-229E Mpro (Human coronavirus 229E, UniProt P0C6X1). The experiment is described as follows: HCoV-229E Mpro enzymatic inhibition assay (fluorescence). The class given is biochemical.
[8] abbreviates: mean, 25 nM protein, 25 μM substrate, 30 min pre-incubation, 60 min at 30° C., read-out: Mpro_SARS-CoV-2 mean IC50.

Chain of MERS Mpro (K9N7C7 3248-3553 limits assumed): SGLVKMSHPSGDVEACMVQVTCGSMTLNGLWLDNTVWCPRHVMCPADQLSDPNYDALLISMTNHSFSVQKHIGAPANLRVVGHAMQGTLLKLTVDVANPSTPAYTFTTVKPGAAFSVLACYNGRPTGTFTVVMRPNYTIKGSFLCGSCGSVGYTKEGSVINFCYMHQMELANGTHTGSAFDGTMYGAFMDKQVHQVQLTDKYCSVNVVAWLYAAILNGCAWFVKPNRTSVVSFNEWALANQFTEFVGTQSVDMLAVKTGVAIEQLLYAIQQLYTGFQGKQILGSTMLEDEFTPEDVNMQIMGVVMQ
Chain of HCoV-HKU1 Mpro (P0C6X2 3335-3637 limits assumed): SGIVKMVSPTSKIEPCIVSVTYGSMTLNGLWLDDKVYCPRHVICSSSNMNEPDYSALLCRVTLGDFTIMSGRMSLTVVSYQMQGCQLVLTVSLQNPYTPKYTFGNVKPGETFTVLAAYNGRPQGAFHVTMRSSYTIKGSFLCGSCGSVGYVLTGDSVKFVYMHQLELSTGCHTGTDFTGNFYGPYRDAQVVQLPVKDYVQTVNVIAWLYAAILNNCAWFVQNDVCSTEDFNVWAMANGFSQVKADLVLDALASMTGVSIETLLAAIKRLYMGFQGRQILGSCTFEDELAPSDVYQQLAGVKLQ
Chain of HCoV-229E Mpro (P0C6X1 2966-3267 limits assumed): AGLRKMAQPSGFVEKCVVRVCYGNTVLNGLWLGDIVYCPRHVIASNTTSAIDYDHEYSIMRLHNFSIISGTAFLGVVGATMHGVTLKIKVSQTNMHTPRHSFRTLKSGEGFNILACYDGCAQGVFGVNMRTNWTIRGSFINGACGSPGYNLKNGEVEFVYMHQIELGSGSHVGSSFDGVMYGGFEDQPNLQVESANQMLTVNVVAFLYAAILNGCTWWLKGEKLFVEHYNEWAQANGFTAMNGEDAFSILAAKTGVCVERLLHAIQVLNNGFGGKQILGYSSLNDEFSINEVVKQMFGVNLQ
Chain of HCoV-OC43 Mpro (P0C6X6 3247-3549 limits assumed): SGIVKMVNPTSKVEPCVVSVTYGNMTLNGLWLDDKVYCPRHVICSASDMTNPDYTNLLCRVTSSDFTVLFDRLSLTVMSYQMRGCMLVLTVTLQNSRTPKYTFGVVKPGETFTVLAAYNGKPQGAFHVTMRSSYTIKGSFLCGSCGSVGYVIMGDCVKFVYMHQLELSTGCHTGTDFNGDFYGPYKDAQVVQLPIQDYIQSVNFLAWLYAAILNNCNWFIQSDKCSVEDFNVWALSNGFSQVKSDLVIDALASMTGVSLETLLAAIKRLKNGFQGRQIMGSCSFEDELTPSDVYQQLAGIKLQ
Chain of HCoV-NL63 Mpro (P0C6X5 2940-3242 limits assumed): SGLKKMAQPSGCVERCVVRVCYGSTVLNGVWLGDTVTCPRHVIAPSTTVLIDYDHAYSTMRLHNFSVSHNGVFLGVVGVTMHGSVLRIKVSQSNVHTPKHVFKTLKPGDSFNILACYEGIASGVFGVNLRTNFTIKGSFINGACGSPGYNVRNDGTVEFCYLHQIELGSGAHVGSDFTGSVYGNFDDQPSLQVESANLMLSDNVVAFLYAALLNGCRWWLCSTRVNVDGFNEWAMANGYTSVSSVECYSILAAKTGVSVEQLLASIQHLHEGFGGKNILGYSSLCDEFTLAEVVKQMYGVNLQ

A word on the pIC50: it is −log10 of the IC50, conventionally taken in molar units. As for `CC1(C)[C@@H]2[C@@H](C(=O)N[C@H](C=O)C[C@@H]3CCNC3=O)N(C(=O)c3cc4occc4[nH]3)C[C@@H]21` [Compound 78, (1R,2S,5S)-3-(4H-Furo[3,2-b]pyrrole-5-carbonyl)-6,6-dimethyl-N—((S)-1-oxo-3-((S)-2-oxopyrrolidin-3-yl)propan-2-yl)-3-azabicyclo[3.1.0]hexane-2-carboxamide], the pIC50 in experiment [1] was 7.29; in experiment [2], 7.48; in experiment [3], 7.06; in experiment [4] it was 7.09; in experiment [5], 6.32; in experiment [6], 7.17. Besides, the pIC50 in experiment [7] was 7.43.

As for `Cc1cccc([C@@H](C)C(=O)N2C[C@H]3[C@@H]([C@H]2C(=O)N[C@H](C=O)C[C@@H]2CCNC2=O)C3(C)C)c1` [Compound 7, (1R,2S,5S)-6,6-dimethyl-N—((S)-1-oxo-3-((S)-2-oxopyrrolidin-3-yl)propan-2-yl)-3-((R)-2-(m-tolyl)propanoyl)-3-azabicyclo[3.1.0]hexane-2-carboxamide], the pIC50 in experiment [1] was 8.04; in experiment [2] (setting [8]) it was 7.96; in experiment [3], 7.89; in experiment [4], 7.47; in experiment [5], 7.09; in experiment [6], 7.58. Moreover, in experiment [7], the pIC50 is 7.66.

In the case of `CC1(C)[C@@H]2[C@@H](C(=O)N[C@H](C=O)C[C@@H]3CCNC3=O)N(C(=O)c3cc4cc(F)ccc4[nH]3)C[C@@H]21` [Compound 24, (1R,2S,5S)-3-(5-fluoro-1H-indole-2-carbonyl)-N-[(1S)-1-formyl-2-[(3S)-2-oxopyrrolidin-3-yl]ethyl]-6,6-dimethyl-3-azabicyclo[3.1.0]hexane-2-carboxamide], the pIC50 in experiment [1] is 7.50; in experiment [2], 7.78; in experiment [3] it was 7.13; in experiment [4] it was 7.14; in experiment [5], 6.57; in experiment [6] it was 7.22. The molecule also showed a pIC50 in experiment [7] of 7.49.

Regarding `COc1ccc2cc(C(=O)N3C[C@H]4[C@@H]([C@H]3C(=O)N[C@H](C=O)C[C@@H]3CCNC3=O)C4(C)C)[nH]c2c1` [Compound 56, (1R,2S,5S)-3-(6-Methoxy-1H-indole-2-carbonyl)-6,6-dimethyl-N—((S)-1-oxo-3-((S)-2-oxopyrrolidin-3-yl)propan-2-yl)-3-azabicyclo[3.1.0]hexane-2-carboxamide], the pIC50 in experiment [1] is 7.89; in experiment [2], 7.59; in experiment [3], 7.19; in experiment [4], 7.22; in experiment [5], 6.54; in experiment [6], 7.22. Also, the pIC50 in experiment [7] is 7.37.

With `O=C[C@H](C[C@@H]1CCNC1=O)NC(=O)[C@@H]1CC2(CC2)CN1C(=O)c1cc2ccccc2[nH]1` [Compound 47, (S)-5-(1H-Indole-2-carbonyl)-N—((S)-1-oxo-3-((S)-2-oxopyrrolidin-3-yl)propan-2-yl)-5-azaspiro[2.4]heptane-6-carboxamide], the pIC50 was 7.77 in experiment [1]; 7.64 in experiment [2] (setting [8]); 7.37 in experiment [3]; 7.32 in experiment [4]; 6.86 in experiment [5]; 7.19 in experiment [6]. In experiment [7], this molecule gave a pIC50 of 7.32.

Regarding `CC1(C)C[C@@H](C(=O)N[C@H](C=O)C[C@@H]2CCNC2=O)N(C(=O)c2cc3cccc(F)c3[nH]2)C1` [Compound 62, (S)-1-(7-Fluoro-1H-indole-2-carbonyl)-4,4-dimethyl-N—((S)-1-oxo-3-((S)-2-oxopyrrolidin-3-yl)propan-2-yl)pyrrolidine-2-carboxamide], the pIC50 in experiment [1] is 7.25; in experiment [2], 7.58; in experiment [3], 7.11; in experiment [4] it was 7.04; in experiment [5] it was 6.27; in experiment [6] it was 6.84. Further, the pIC50 in experiment [7] was 7.19.

Turning to `Cc1ccc2cc(C(=O)N3C[C@H]4[C@@H]([C@H]3C(=O)N[C@H](C=O)C[C@@H]3CCNC3=O)C4(C)C)[nH]c2c1C` [Compound 18, (1R,2S,5S)-3-(6,7-dimethyl-1H-indole-2-carbonyl)-6,6-dimethyl-N—((S)-1-oxo-3-((S)-2-oxopyrrolidin-3-yl)propan-2-yl)-3-azabicyclo[3.1.0]hexane-2-carboxamide], the pIC50 in experiment [1] was 7.48; in experiment [2], 7.82; in experiment [3] it was 7.47; in experiment [4] it was 7.12; in experiment [5], 6.52; in experiment [6] it was 7.18. This molecule also gave a pIC50 in experiment [7] of 7.41.

For the molecule `O=C[C@H](C[C@@H]1CCNC1=O)NC(=O)[C@@H]1[C@H]2C[C@H]2CN1C(=O)c1cc2ccccc2[nH]1` [Compound 130, (1S,2S,5R)-3-(1H-Indole-2-carbonyl)-N—((S)-1-oxo-3-((S)-2-oxopyrrolidin-3-yl)propan-2-yl)-3-azabicyclo[3.1.0]hexane-2-carboxamide], the negative logarithm of the IC50 (pIC50) in experiment [1] is 7.06; in experiment [2] it was 6.43; in experiment [3] it was 6.08; in experiment [4], 6.89; in experiment [5], 6.08; in experiment [6] it was 6.40. The same molecule had a pIC50 in experiment [7] of 6.72.

As for `CC1(C)[C@@H]2[C@@H](C(=O)N[C@H](C=O)C[C@@H]3CCNC3=O)N(C(=O)c3cc4ccc(F)cc4[nH]3)C[C@@H]21` [Compound 19, (1R,2S,5S)-3-(6-fluoro-1H-indole-2-carbonyl)-6,6-dimethyl-N—((S)-1-oxo-3-((S)-2-oxopyrrolidin-3-yl)propan-2-yl)-3-azabicyclo[3.1.0]hexane-2-carboxamide], the pIC50 in experiment [1] is 7.74; in experiment [2], 7.81; in experiment [3], 7.40; in experiment [4], 7.43; in experiment [5], 6.73; in experiment [6], 7.30. In addition, in experiment [7], the pIC50 was 7.56.

As to `CC1(C)[C@@H]2[C@@H](C(=O)N[C@H](C=O)C[C@@H]3CCCNC3=O)N(C(=O)c3cc4ccccc4[nH]3)C[C@@H]21` [Compound 11, (1R,2S,5S)-3-(1H-indole-2-carbonyl)-6,6-dimethyl-N—((S)-1-oxo-3-((S)-2-oxopiperidin-3-yl)propan-2-yl)-3-azabicyclo[3.1.0]hexane-2-carboxamide], the pIC50 in experiment [1] was 7.40; in experiment [2], 7.88; in experiment [3], 7.42; in experiment [4] it was 7.30; in experiment [5], 6.64; in experiment [6], 7.47. The molecule also had a pIC50 in experiment [7] of 7.43.

Take `Cc1ccc2[nH]c(C(=O)N3C[C@H]4[C@@H]([C@H]3C(=O)N[C@H](C=O)C[C@@H]3CCNC3=O)C4(C)C)cc2c1` [Compound 93, (1R,2S,5S)-6,6-Dimethyl-3-(5-methyl-1H-indole-2-carbonyl)-N—((S)-1-oxo-3-((S)-2-oxopyrrolidin-3-yl)propan-2-yl)-3-azabicyclo[3.1.0]hexane-2-carboxamide]: the negative logarithm of the IC50 (pIC50) in experiment [1] was 7.62; in experiment [2] it was 7.35; in experiment [3] it was 7.14; in experiment [4], 7.27; in experiment [5] it was 6.50; in experiment [6], 7.26. The molecule also gave a pIC50 in experiment [7] of 7.48.

Turning to `O=C[C@H](C[C@@H]1CCNC1=O)NC(=O)[C@@H]1C[C@@H](C2CCCCC2)CN1C(=O)c1cc2cccc(F)c2[nH]1` [Compound 71, (2S,4S)-4-cyclohexyl-1-(7-fluoro-1H-indole-2-carbonyl)-N—((S)-1-oxo-3-((S)-2-oxopyrrolidin-3-yl)propan-2-yl)pyrrolidine-2-carboxamide], the pIC50 is 7.46 in experiment [1]; 7.52 in experiment [2]; 7.02 in experiment [3]; 6.38 in experiment [4]; 5.85 in experiment [5]; 6.88 in experiment [6]. The same molecule showed a negative-log IC50 (pIC50) in experiment [7] of 7.27.

As to `CC1(C)[C@@H]2[C@@H](C(=O)N[C@H](C=O)C[C@@H]3CCNC3=O)N(C(=O)Cc3ccccc3)C[C@@H]21` [Compound 23, (1R,2S,5S)-6,6-dimethyl-N—((S)-1-oxo-3-((S)-2-oxopyrrolidin-3-yl)propan-2-yl)-3-(2-phenylacetyl)-3-azabicyclo[3.1.0]hexane-2-carboxamide], the pIC50 is 7.65 in experiment [1]; 7.80 in experiment [2] (setting [8]); 7.63 in experiment [3]; 7.30 in experiment [4]; 6.90 in experiment [5]; 7.52 in experiment [6]. The pIC50 in experiment [7] was 7.47.

With `CC1(C)[C@@H]2[C@@H](C(=O)N[C@H](C=O)C[C@@H]3CCNC3=O)N(C(=O)CC3CCC(F)(F)CC3)C[C@@H]21` [Compound 16, (1R,2S,5S)-3-(2-(4,4-difluorocyclohexyl)acetyl)-6,6-dimethyl-N—((S)-1-oxo-3-((S)-2-oxopyrrolidin-3-yl)propan-2-yl)-3-azabicyclo[3.1.0]hexane-2-carboxamide], the pIC50 in experiment [1] is 7.90; in experiment [2], 7.84; in experiment [3] it was 7.63; in experiment [4] it was 7.54; in experiment [5], 6.80; in experiment [6], 7.52. The pIC50 in experiment [7] is 7.60.
